Results from ChEMBL document CHEMBL3885861, “Open TG-GATES”.

Species on record: Rattus norvegicus
Assay: Open TG-GATES - Regimen: Daily Repeat
Format: toxicity, organism-based, Sprague-Dawley
Set-up: regimen Daily Repeat, gender Male, age 6 weeks
Conditions: in vivo, iv, route intravenous injection; for APTT / Bas / Eos / Fbg / Hb / Ht / Lym / MCHC / MCV / Mono / Neu / PT / Plat / RBC / Ret / WBC / MCH: tissue Blood; for KIDNEY_L / KIDNEY_R / KIDNEY_TOTAL: tissue Kidney; for LIVER: tissue Liver
[1] = 0 mg/kg, 72 h, dose level Control, time 3 day
[2] = 0 mg/kg, 72 h, tissue Plasma, dose level Control, time 3 day
[3] = 0 mg/kg, […], dose level Control, time 7 day
[4] = 0 mg/kg, […], dose level Control, time 14 day
[5] = 0 mg/kg, […], dose level Control, time 28 day
[6] = 0 mg/kg, […], tissue Plasma, dose level Control, time 7 day
[7] = 0 mg/kg, […], tissue Plasma, dose level Control, time 14 day
[8] = 0 mg/kg, […], tissue Plasma, dose level Control, time 28 day
[9] = 1 mg/kg, 72 h, dose level Low, time 3 day
[10] = 1 mg/kg, 72 h, tissue Plasma, dose level Low, time 3 day
[11] = 1 mg/kg, […], dose level Low, time 7 day
[12] = 1 mg/kg, […], dose level Low, time 14 day
[13] = 1 mg/kg, […], dose level Low, time 28 day
[14] = 1 mg/kg, […], tissue Plasma, dose level Low, time 7 day
[15] = 1 mg/kg, […], tissue Plasma, dose level Low, time 14 day
[16] = 1 mg/kg, […], tissue Plasma, dose level Low, time 28 day

CARBOPLATIN
TERMINAL_BW [1]: 221.4 g | APTT [1]: 23.3 s | Bas [1]: 0% | Eos [1]: 0.8% | Fbg [1]: 298.8 mg/dL | Hb [1]: 13 g/dL | Ht [1]: 40.2% | Lym [1]: 80.4% | MCHC [1]: 32.2% | MCV [1]: 63.6 fL | Mono [1]: 2.6% | Neu [1]: 15.4% | PT [1]: 16.2 s | Plat [1]: 127.8 x10_4/uL | RBC [1]: 633 x10_4/ul | Ret [1]: 5.4% | WBC [1]: 112.5 x10_2/uL | KIDNEY_L [1]: 1 g | KIDNEY_R [1]: 1 g | KIDNEY_TOTAL [1]: 2 g | ALP [2]: 1505 IU/L | ALT [2]: 38.6 IU/L | AST [2]: 67.6 IU/L | BUN [2]: 18 mg/dL | CRE [2]: 0.2 mg/dL | DBIL [2]: 0 mg/dL | GLC [2]: 182.4 mg/dL | IP [2]: 7.3 mg/dL | K [2]: 4.6 meq/L | LDH [2]: 206.4 IU/L | PL [2]: 150 mg/dL | RALB [2]: 3 g/dL | TBIL [2]: 0.004 mg/dL | TC [2]: 78.2 mg/dL | TG [2]: 103 mg/dL | TP [2]: 5.4 g/dL | gamma-GTP [2]: 1.6 IU/L | TERMINAL_BW [3]: 254.4 g | TERMINAL_BW [4]: 298 g | TERMINAL_BW [5]: 364.6 g | APTT [3]: 23.5 s | Bas [3]: 0% | Eos [3]: 0.8% | Fbg [3]: 312.2 mg/dL | Ht [3]: 40.5% | Lym [3]: 81.4% | MCH [3]: 20.6 pg | MCHC [3]: 32.4% | MCV [3]: 63.6 fL | Mono [3]: 2.4% | Plat [3]: 123.2 x10_4/uL | RBC [3]: 638.2 x10_4/ul | Ret [3]: 4.9% | WBC [3]: 120.2 x10_2/uL | APTT [4]: 25.2 s | Bas [4]: 0% | Eos [4]: 1% | Fbg [4]: 296.8 mg/dL | Hb [4]: 13.6 g/dL | Ht [4]: 40.5% | Lym [4]: 80.8% | MCHC [4]: 33.6% | MCV [4]: 60.3 fL | Mono [4]: 3.4% | Plat [4]: 128.4 x10_4/uL | RBC [4]: 672.4 x10_4/ul | Ret [4]: 3.6% | WBC [4]: 136.2 x10_2/uL | APTT [5]: 24.2 s | Bas [5]: 0% | Eos [5]: 1% | Fbg [5]: 308.6 mg/dL | Ht [5]: 42.1% | Lym [5]: 82.2% | MCH [5]: 19.9 pg | MCV [5]: 56.5 fL | Mono [5]: 2.6% | PT [5]: 16 s | Plat [5]: 108.9 x10_4/uL | RBC [5]: 746.2 x10_4/ul | Ret [5]: 2.1% | WBC [5]: 150.1 x10_2/uL | KIDNEY_L [3]: 1.1 g | KIDNEY_R [3]: 1.2 g | KIDNEY_TOTAL [3]: 2.3 g | KIDNEY_L [4]: 1.2 g | KIDNEY_R [4]: 1.2 g | KIDNEY_TOTAL [4]: 2.4 g | KIDNEY_L [5]: 1.3 g | KIDNEY_R [5]: 1.3 g | KIDNEY_TOTAL [5]: 2.7 g | LIVER [4]: 13.1 g | LIVER [5]: 14.9 g | ALP [6]: 1596.2 IU/L | ALT [6]: 39 IU/L | AST [6]: 70.6 IU/L | BUN [6]: 17.6 mg/dL | CRE [6]: 0.2 mg/dL | DBIL [6]: 0 mg/dL | GLC [6]: 182.6 mg/dL | IP [6]: 7.8 mg/dL | K [6]: 4.7 meq/L | LDH [6]: 172.8 IU/L | PL [6]: 144 mg/dL | RALB [6]: 3.1 g/dL | TBIL [6]: 0.002 mg/dL | TC [6]: 74.6 mg/dL | TG [6]: 87.8 mg/dL | TP [6]: 5.6 g/dL | gamma-GTP [6]: 2.2 IU/L | ALP [7]: 1124 IU/L | ALT [7]: 38.2 IU/L | AST [7]: 68.8 IU/L | BUN [7]: 17.2 mg/dL | CRE [7]: 0.2 mg/dL | DBIL [7]: 0 mg/dL | GLC [7]: 203 mg/dL | IP [7]: 6.9 mg/dL | K [7]: 4.3 meq/L | LDH [7]: 155.6 IU/L | Na [7]: 140.4 meq/L | PL [7]: 146 mg/dL | RALB [7]: 3 g/dL | TBIL [7]: 0.008 mg/dL | TC [7]: 73.8 mg/dL | TG [7]: 110.8 mg/dL | TP [7]: 5.7 g/dL | gamma-GTP [7]: 3.6 IU/L | ALP [8]: 1264.8 IU/L | ALT [8]: 43 IU/L | AST [8]: 76.2 IU/L | BUN [8]: 17.6 mg/dL | CRE [8]: 0.2 mg/dL | DBIL [8]: 0.002 mg/dL | IP [8]: 7.1 mg/dL | K [8]: 4.3 meq/L | LDH [8]: 202 IU/L | PL [8]: 138.6 mg/dL | RALB [8]: 3 g/dL | TBIL [8]: 0.01 mg/dL | TC [8]: 67.2 mg/dL | TG [8]: 113 mg/dL | TP [8]: 6 g/dL | gamma-GTP [8]: 2.2 IU/L | TERMINAL_BW [9]: 215.8 g | APTT [9]: 23.9 s | Bas [9]: 0% | Eos [9]: 0.8% | Fbg [9]: 317.8 mg/dL | Hb [9]: 13 g/dL | Lym [9]: 83% | MCHC [9]: 32.2% | Mono [9]: 2.8% | Neu [9]: 12.6% | PT [9]: 16.2 s | Plat [9]: 122.5 x10_4/uL | RBC [9]: 647.8 x10_4/ul | Ret [9]: 4.5% | WBC [9]: 100.1 x10_2/uL | KIDNEY_L [9]: 0.9 g | KIDNEY_R [9]: 0.9 g | KIDNEY_TOTAL [9]: 1.9 g | LIVER [9]: 9.5 g | ALP [10]: 1749.2 IU/L | ALT [10]: 44.2 IU/L | AST [10]: 72.8 IU/L | BUN [10]: 16.6 mg/dL | CRE [10]: 0.2 mg/dL | DBIL [10]: 0 mg/dL | GLC [10]: 175.8 mg/dL | IP [10]: 6.9 mg/dL | K [10]: 4.6 meq/L | LDH [10]: 189.6 IU/L | PL [10]: 147.8 mg/dL | RALB [10]: 3.1 g/dL | TBIL [10]: 0.004 mg/dL | TC [10]: 76.2 mg/dL | TG [10]: 106.8 mg/dL | TP [10]: 5.5 g/dL | gamma-GTP [10]: 1.4 IU/L | TERMINAL_BW [11]: 248.6 g | TERMINAL_BW [12]: 299.2 g | TERMINAL_BW [13]: 348.7 g | APTT [11]: 22.2 s | Bas [11]: 0% | Eos [11]: 1% | Fbg [11]: 304 mg/dL | Ht [11]: 40.7% | Lym [11]: 80.8% | MCH [11]: 19.9 pg | MCHC [11]: 32.4% | Mono [11]: 2.4% | Plat [11]: 136.3 x10_4/uL | RBC [11]: 662 x10_4/ul | Ret [11]: 4.6% | WBC [11]: 108.6 x10_2/uL | APTT [12]: 26.4 s | Bas [12]: 0% | Eos [12]: 1% | Fbg [12]: 302.2 mg/dL | Hb [12]: 14.1 g/dL | Ht [12]: 42.1% | Lym [12]: 83.2% | MCHC [12]: 33.4% | MCV [12]: 60.3 fL | Mono [12]: 2.5% | Neu [12]: 12% | Plat [12]: 111 x10_4/uL | RBC [12]: 698.8 x10_4/ul | Ret [12]: 3.1% | WBC [12]: 122.2 x10_2/uL | APTT [13]: 24.7 s | Bas [13]: 0% | Eos [13]: 1.2% | Fbg [13]: 311.6 mg/dL | Ht [13]: 42.3% | Lym [13]: 83.2% | MCH [13]: 19.1 pg | MCHC [13]: 35.1% | MCV [13]: 54.4 fL | Mono [13]: 2.6% | Neu [13]: 12% | Plat [13]: 105.6 x10_4/uL | RBC [13]: 777.8 x10_4/ul | Ret [13]: 1.7% | WBC [13]: 94.6 x10_2/uL | KIDNEY_L [11]: 1 g | KIDNEY_R [11]: 1 g | KIDNEY_TOTAL [11]: 2 g | KIDNEY_L [12]: 1.2 g | KIDNEY_R [12]: 1.2 g | KIDNEY_TOTAL [12]: 2.4 g | KIDNEY_L [13]: 1.3 g | KIDNEY_R [13]: 1.3 g | KIDNEY_TOTAL [13]: 2.6 g | LIVER [11]: 11.2 g | LIVER [13]: 13.5 g | ALP [14]: 1760.4 IU/L | ALT [14]: 40.6 IU/L | AST [14]: 75 IU/L | BUN [14]: 16.4 mg/dL | CRE [14]: 0.2 mg/dL | Ca [14]: 11 mg/dL | DBIL [14]: 0 mg/dL | IP [14]: 7.5 mg/dL | K [14]: 4.6 meq/L | LDH [14]: 138.8 IU/L | Na [14]: 140.2 meq/L | PL [14]: 138.2 mg/dL | RALB [14]: 3 g/dL | TBIL [14]: 0.008 mg/dL | TG [14]: 94.6 mg/dL | TP [14]: 5.6 g/dL | gamma-GTP [14]: 2.2 IU/L | ALP [15]: 1603 IU/L | ALT [15]: 38 IU/L | AST [15]: 80.4 IU/L | BUN [15]: 18 mg/dL | CRE [15]: 0.2 mg/dL | DBIL [15]: 0.004 mg/dL | GLC [15]: 171.6 mg/dL | IP [15]: 6.4 mg/dL | K [15]: 4.5 meq/L | LDH [15]: 160 IU/L | PL [15]: 130.2 mg/dL | RALB [15]: 3.1 g/dL | TBIL [15]: 0.01 mg/dL | TC [15]: 64.8 mg/dL | TG [15]: 101.6 mg/dL | TP [15]: 5.9 g/dL | gamma-GTP [15]: 2.6 IU/L | ALP [16]: 1005 IU/L | ALT [16]: 40.4 IU/L | CRE [16]: 0.2 mg/dL | DBIL [16]: 0 mg/dL | GLC [16]: 181 mg/dL | IP [16]: 6 mg/dL | K [16]: 4.2 meq/L | LDH [16]: 140.2 IU/L | PL [16]: 133.8 mg/dL | RALB [16]: 3 g/dL | TBIL [16]: 0.006 mg/dL | TC [16]: 68.8 mg/dL | TG [16]: 102.2 mg/dL | TP [16]: 6 g/dL | gamma-GTP [16]: 2.4 IU/L
